“And” between values parts separate entries of the source, which are not always exact repeats. Equal entries are not always repeated. “Also recorded” adds a separate entry of the source.
What was measured:
CnAOEC cells [1] = test: 3H-thymidine proliferation test in canine aortic endothelial cells; assay type: cell-based; details: for effect on CnAOEC cell proliferation: reference substances, phase 1, 48 hours exposure
Protocol: The cells are cultured in a culture medium containing CECGM (Canine Endothelial Cell Growth Medium) growth factors and previously coated with AFS (Attachment Factor Solution) agent to assist with the adherence thereof.
The confluent CnAOEC cell cultures were re-inoculated in 96-well culture plates (10,000 cells per […]). Six hours after the inoculation thereof, the cells were exposed to ^3H-thymidine (final concentration: 1 μCi/ml) and to the respective test agents for 48 hours, and were subjected to two washing steps with PBS. After a treatment with trypsin and a freeze-thaw cycle, the DNA incorporating ^3H-thymidine was captured on a glass fiber filter using a “Betaplate™ 96-bien-Cell Harvester” (Wallac, Turku).
The quantities of ^3H-thymidine incorporated in the control cells (without adding test agent) were defined as 100% and the results were expressed as a function of these control cells.
The soy isoflavones were solubilized in DMSO. The experimental samples, and those of the respective controls (DMSO free from test substance) contained a final DMSO concentration of 1%.
The statistical evaluation is based on three or four separate experiments, each being performed with 2 to 4 independent wells.

[2] = Trolox Equivalent Antioxidant Capacity (TEAC) assay; assay type: biochemical; details: for ABTS radical inhibition: Table A, 50 μg/ml and 250 μg/ml where stated
Protocol: This method is based on the ability of antioxidant molecules to inactivate ABTS° ^+ radical with a long lifetime, compared to Trolox, a water-soluble vitamin E analog, used as the positive control. ABTS° ^+ radical is blue-green chromophore with a characteristic absorption at 734 nm.
The samples of the test substances and Trolox are diluted in PBS buffer to obtain the chosen concentrations, Then, 200 μl of ABTS° ^+ at a concentration of 7 mM is added to 50 μl of sample or Trolox solution in 96-well plates.
The absorbance of the various samples is read every 2 minutes for 6 minutes (incubation time) at ambient temperature. The results are given as a percentage of ABTS radical inhibition, and as Trolox equivalent (μM).

DPPH antioxidant test = assay type: biochemical
Protocol: The absorbance of the mixture is read at 540 nm every 5 minutes for 30 minutes at ambient temperature. After reduction, the color of the solution disappears (change from a violet color to a light yellow color). The reduction (referred to herein as “inhibition” or “quenching”) percentage reflects the free radical scavenging capacity of the test sample. Trolox is also used as a positive control. The results are given as a DPPH radical inhibition percentage.

CnAOEC cells [3] = test: Protection of CnAOEC cells against H2O2 oxidative stress, MTT viability; assay type: cell-based, canine; details: 2 mM H2O2; for protective effect on CnAOEC cell viability: 50 μg/ml; for protective effect on CnAOEC cell viability against H2O2: 1 to 250 μg/ml
Protocol: The plates are then centrifuged, and the formazan resulting from the reaction with MTT is solubilized in DMSO. The absorbance is measured at 570 nm, with a correction at 690 nm. The ability of the natural substances to protect cells against the adverse effects of oxidative stress was evaluated in CnAOEC cells. […] After the pretreatment period, the cells were subjected to oxidative stress (2 mM H2O2) for 24 hours and the cell viability was evaluated using the MTT test as described above. For this test, the data are means obtained from eight different experiments±Standard Deviation (SD). They were analyzed statistically using a one-way ANOVA Student t-test. The differences were considered to be significant when p<0.05.

CnAOEC cells [4] = test: 3H-thymidine DNA fragmentation apoptosis test in canine aortic endothelial cells; assay type: cell-based; details: for inhibition of the pro-apoptotic effects of free fatty acids: linoleic acid or γ-linolenic acid plus antioxidant, FIGS. 3 and 4; for effect on CnAOEC cell apoptosis: reference substances, phase 1, 24 hours exposure
Protocol: The 60 mm plates containing semi-confluent CnAOEC cells were labeled with ^3H-thymidine (1 μCi/ml) for 36 hours. These cells were then inoculated in 24-well culture plates (50,000 cells/well). After the exposure thereof to the agents under test (24 hours), the cells were treated with a lysis buffer (20 mmol/1 TrisHCl, pH 7.5, and 0.4% of Triton X-100 in PBS). The radiolabeled fragmented (apoptotic) DNA present in the supernatant was counted using a liquid scintillation analyzer. The results were then correlated with the total radioactivity incorporated in the cells (quantified after digestion of the remaining suspension with 180 μg/ml of DNase). The values calculated for the control cells (without adding test agent) were set at 100% and the results were expressed as a function of these control cells. Each time the reference substances were dissolved in ethanol (final concentration 1.5%), an identical quantity of ethanol was added to all the other wells, including the control wells.
The apoptosis tests were conducted with radiolabeled CnAOEC cells, at 60% confluence and in culture dishes previously treated with fibronectin.
The statistical evaluation is based on three separate experiments, each being performed with 2 to 4 independent wells.
The modulation of CnAOEC cell apoptosis (variation measured as a % relative to the control set at 100%) is performed in comparison to the reference substance glutathione (GSH).

CnAOEC cells [5] = assay type: cell-based, canine; details: dog, 24 h, 60 µM
Protocol: The MTT test was used for evaluating the viability of CNAOEC cells exposed to cytotoxic treatments (60 μM of digitonin or addition between 0.1% and 20% of DMSO or at increasing concentrations (ranging from 0.5 mM to 16 mM) of H2O2 for 24 hours so as to induce oxidative stress.
In this test, the cell damage is evaluated 24 hours after treatment with the cytotoxic substance by means of a 4-hour incubation with MTT at 0.5 mg/ml, 37° C. and 5% CO2. The plates are then centrifuged, and the formazan resulting from the reaction with MTT is solubilized in DMSO. The absorbance is measured at 570 nm, with a correction at 690 nm.
The MTT test was chosen to measure the cell viability on the basis of the data obtained after treating the cell with 60 μm digitonin (73% reduction±10%) and with 10% and 20% DMSO.
The damage to the CnAOEC cells caused by free radicals is obtained from a treatment with H2O2 at a concentration range from 0.5 mM to 16 mM.

[6] = humans; cited from earlier work
[7] = dogs; cited from earlier work

## C[N+](C)(C)C[C@H](O)CC(=O)[O-].O=C(O)C(O)C(O)C(=O)O [L-carnitine, L-carnitine-L-tartrate]
CnAOEC cells [1]; 50 μg/ml, 48 hours
  drop in CnAOEC cell proliferation: 3.75%
  renewal rate (proliferation relative to control set at 100%): 96.25%
[2]
  ABTS radical inhibition: did not display any effect; also recorded: do not display any scavenging activity with ABTS
[2]; sample 1 μg/ml
  ABTS°+ inhibition %: 0.45%
[2]; sample 50 μg/ml
  ABTS°+ inhibition %: 0.37%
[2]; sample 250 μg/ml
  ABTS°+ inhibition %: 0.92%
DPPH antioxidant test; sample 1 μg/ml
  % DPPH (radical inhibition): 6.74%
DPPH antioxidant test; sample 50 μg/ml
  % DPPH (radical inhibition): 4.97%
DPPH antioxidant test; sample 250 μg/ml
  % DPPH (radical inhibition): 15% and 14.94%
DPPH antioxidant test; text on Table B
  DPPH scavenging activity: low
CnAOEC cells [3]
  protective effect on CnAOEC cell viability: not capable of maintaining CnAOEC cell viability
  protective effect on CnAOEC cell viability against H2O2: did not display a protective effect

## CC(=O)N[C@@H](CS)C(=O)O [N-acetylcysteine]
CnAOEC cells [4]
  inhibition of the pro-apoptotic effects of free fatty acids: not completely inhibited
  effect on CnAOEC cell apoptosis: inhibit apoptosis in CnAOEC cells significantly; also recorded: cell apoptosis is inhibited

## NCCS(=O)(=O)O [Taurine, taurine]
CnAOEC cells [1]; 50 μg/ml, 48 hours
  drop in CnAOEC cell proliferation: 4%
[2]
  ABTS radical inhibition: did not display any effect; also recorded: do not display any scavenging activity with ABTS
[2]; sample 1 μg/ml
  ABTS°+ inhibition %: −0.50%
[2]; sample 50 μg/ml
  ABTS°+ inhibition %: −0.69%
[2]; sample 250 μg/ml
  ABTS°+ inhibition %: −0.62%
DPPH antioxidant test; sample 1 μg/ml
  % DPPH (radical inhibition): 4.95%
DPPH antioxidant test; sample 50 μg/ml
  % DPPH (radical inhibition): 10.84%
DPPH antioxidant test; sample 250 μg/ml
  % DPPH (radical inhibition): 25.09%
DPPH antioxidant test; sample 250 μg/ml, listed as taurine
  % DPPH (radical inhibition): 24%
CnAOEC cells [3]
  protective effect on CnAOEC cell viability: not capable of maintaining CnAOEC cell viability
  protective effect on CnAOEC cell viability against H2O2: did not display a protective effect

## Cc1c(C)c2c(c(C)c1O)CCC(C)(C(=O)O)O2 (stereo not drawn) [Trolox, reference compound]
DPPH antioxidant test; 5 μM
  % DPPH (radical inhibition): 4.21%
DPPH antioxidant test; 10 μM
  % DPPH (radical inhibition): 9.91%
DPPH antioxidant test; 15 μM
  % DPPH (radical inhibition): 17.00%
DPPH antioxidant test; 20 μM
  % DPPH (radical inhibition): 23.49%
DPPH antioxidant test; 25 μM
  % DPPH (radical inhibition): 28.6%
DPPH antioxidant test; 30 μM
  % DPPH (radical inhibition): 33.06%
DPPH antioxidant test; 40 μM
  % DPPH (radical inhibition): 41.18%

## C[C@@H]1CC[C@@]2(OC1)O[C@H]1[C@@H](O)[C@H]3[C@@H]4CC[C@H]5C[C@@H](O[C@@H]6O[C@H](CO)[C@H](O[C@@H]7O[C@H](CO)[C@@H](O)[C@H](O[C@@H]8OC[C@@H](O)[C@H](O)[C@H]8O)[C@H]7O[C@@H]7O[C@H](CO)[C@H](O)[C@H](O[C@@H]8O[C@H](CO)[C@@H](O)[C@H](O)[C@H]8O)[C@H]7O)[C@H](O)[C@H]6O)[C@H](O)C[C@]5(C)[C@H]4CC[C@]3(C)[C@H]1[C@@H]2C [digitonin]
CnAOEC cells [5]
  reduction of cell viability (MTT): 73%

## O=c1oc2c(O)c(O)cc3c(=O)oc4c(O)c(O)cc1c4c23 [ellagic acid]
[6]
  plasma concentration after dietary supplementation with pomegranate extract: approximately 10 μg/ml

## O=c1c(-c2ccc(O)cc2)coc2cc(O)cc(O)c12 [genistein]
[7]
  plasma concentrations after oral supplementation: ≤ 5000 ng/mL

## N[C@@H](CCC(=O)N[C@@H](CS)C(=O)NCC(=O)O)C(=O)O [glutathione]
CnAOEC cells [1]; 10 mmol/l, positive control
  proliferation, % of the control: 54.75%
CnAOEC cells [1]
  effect on CnAOEC cell proliferation: reduce CnAOEC cell proliferation considerably
CnAOEC cells [4]
  inhibition of the pro-apoptotic effects of free fatty acids: not completely inhibited
  effect on CnAOEC cell apoptosis: inhibit apoptosis in CnAOEC cells significantly; also recorded: cell apoptosis is inhibited

## CCCCC/C=C\C/C=C\CCCCCCCC(=O)O [linoleic acid, reference compound]
CnAOEC cells [1]
  effect on CnAOEC cell proliferation: inhibit endothelial proliferation completely; also recorded: reduce CnAOEC cell proliferation considerably
CnAOEC cells [4]
  effect on CnAOEC cell apoptosis: very strong pro-apoptotic reaction

## CCCCC/C=C\C/C=C\C/C=C\CCCCC(=O)O [γ-linolenic acid, reference compound]
CnAOEC cells [1]
  effect on CnAOEC cell proliferation: inhibit endothelial proliferation completely; also recorded: reduce CnAOEC cell proliferation considerably
CnAOEC cells [4]
  effect on CnAOEC cell apoptosis: very strong pro-apoptotic reaction

## VEGF
CnAOEC cells [1]
  effect on CnAOEC cell proliferation: no pro-proliferation effect on CnAOEC cells; also recorded: did not induce the same response in CnAOEC cells; also recorded: have no influence on CnAOEC cell proliferation

## bFGF: basic Fibroblast Growth Factor, vascular growth factor reference
CnAOEC cells [1]
  effect on CnAOEC cell proliferation: no pro-proliferation effect on CnAOEC cells; also recorded: did not induce the same response in CnAOEC cells; also recorded: have no influence on CnAOEC cell proliferation

Reference: US20140335180A1, “PRODUCTS FOR ORAL ADMINISTRATION COMPRISING EXTRACTS OF PUNICA GRANATUM (POMEGRANATE), INTENDED FOR A PET, AND APPLICATIONS OF SAME” (VIRBAC SA, priority 2011, published 2014)
